According to patent US6590127B1, “Process for the preparation of pharmacologically active α-asarone from toxic β-asarone rich acorus calamus oil” (priority 2002, dated 2003):

Columns and labels:
[1] = Toxicity of 2,4,5-trimethoxyphenylpropane compared with β-asarone
human lymphocytes = human lymphocytes in-vitro after metabolic activation; cited from earlier work
animals = conditions: cited from earlier work
mice = conditions: cited from earlier work
rats = conditions: cited from earlier work
[2] = system: mice fed with a high cholesterol diet; conditions: oral dose of 80 mg/kg; cited from earlier work

CCCc1cc(OC)c(OC)cc1OC [2,4,5-trimethoxyphenylpropane, 1-propyl-2,4,5-trimethoxybenzene]
toxicity relative to β-asarone [1]: five times less toxic

C/C=C\c1cc(OC)c(OC)cc1OC [β-asarone]
chromosome damaging effect (human lymphocytes): chromosome damaging effect | tumor induction (animals; after oral administration): induce tumors in the duodenal region | carcinogenicity (animals; animals): carcinogenic

C/C=C/c1cc(OC)c(OC)cc1OC [α-asarone, trans-2,4,5-trimethoxyphenyl-1-propene]
toxicity (mice): no toxic effect is observed | toxicity (rats): no toxic effect is observed | decrease of cholesterol [2]: 49.6% | decrease of triglycerides [2]: 83.7% | high density lipoprotein (HDL)-cholesterol [2]: increased
